Data on 19 molecules can be found in ChEMBL document CHEMBL4400515, “Anti-parasitic activity of polyether ionophores” (Eur J Med Chem, 2019).

Experiment [1] relates to Trypanosoma brucei. Briefly: Antitrypanosomal activity against bloodstream form of Trypanosoma brucei clone 427-221a measured after 72 hrs by resazurin dye based assay. It counts as functional.
Experiment [2] relates to Trypanosoma brucei. Briefly: Antitrypanosomal activity against bloodstream form of Trypanosoma brucei clone 427-221a measured after 72 hrs by microscopic analysis. It is filed as functional.
The subject of experiment [3] is Plasmodium falciparum. The experiment can be described thus: Antimalarial activity against Plasmodium falciparum Nigerian infected in human red blood cells after 48 hrs by [3H]-hypoxanthine incorporation assay. It is filed as functional, organism-based.
For a further experiment, the system named is Plasmodium chabaudi. Briefly: Antiplasmodial activity against Plasmodium chabaudi infected in Swiss mouse assessed as reduction in parasitemia administered twice daily via ip for 4 days starting from 1.5 hrs post infection. It counts as functional.
The test system of the next experiment is Plasmodium berghei. Briefly: Antimalarial activity against Plasmodium berghei infected in po dosed mouse. It is filed as functional.
Experiment [4] relates to Plasmodium falciparum. The experiment can be described thus: Antiplasmodial activity against trophozoite stage of Plasmodium falciparum 3D7 measured after 48 hrs by [3H]-hypoxanthine incorporation assay. It counts as functional, organism-based.
The subject of experiment [5] is Cryptosporidium parvum. The experiment can be described thus: Antiparasitic activity against Cryptosporidium parvum infected in CB.17 SCID mouse assessed as faecal parasite load at 3 mg/kg, administered once daily for 3 days by OW50-FITC staining based flow cytometry relative to control. It is filed as functional.
Experiment [6] relates to Leishmania donovani. Briefly: Antileishmanial activity against Leishmania donovani MHOM/SD/001S-2D promastigotes transformed from splenic cultures of infected Chester Beatty hamster measured after 48 hrs by CellTiter-Glo luminescent cell viability assay. It is filed as functional, organism-based. In general terms: Cellular ATP, detected with luciferase, serves as a proxy for viable cell number.

Experiment [7] has as its system Leishmania donovani. The experiment can be described thus: Antileishmanial activity against Leishmania donovani MHOM/SD/001S-2D […] measured after 48 hrs by CellTiter-Glo luminescent cell viability assay. It is filed as functional, organism-based.
Experiment [8] relates to Leishmania major. The experiment can be described thus: Antileishmanial activity against promastigote stage of Leishmania major MHOM/IL/81/Friedlin transformed from lymph node cultures of infected Balb/c mouse measured after 48 hrs by luminometry. It counts as functional, organism-based.
Experiment [9] relates to Leishmania major. Briefly: Antileishmanial activity against […] measured after 48 hrs by luminometry. It counts as functional, organism-based.
The subject of experiment [10] is Plasmodium vinckei petteri. The experiment can be described thus: Antimalarial activity against Plasmodium vinckei petteri infected in IOPS OF1 mouse assessed as reduction in parasitemia administered once daily via sc for 4 days. It counts as functional. To be noted: 96 h.
Experiment [11] concerns Plasmodium vinckei petteri. The experiment can be described thus: Antimalarial activity against Plasmodium vinckei petteri infected in IOPS OF1 mouse assessed as reduction in parasitemia at 10 mg/kg, sc administered once daily for 4 days relative to control. The arrangement: scale not given: the % may be the effect or the level left. It counts as functional.
The next experiment deals with Toxoplasma gondii. Briefly: Antiparasitic activity against Toxoplasma gondii infected in Scottish Blackface ewes assessed as mortality at 16.8 to 27.9 mg administered daily for 10 days prior to parasitic infection (reference value: 55.2%). It counts as functional.
The test system of experiment [12] is Cryptosporidium parvum. The experiment can be described thus: Antiparasitic activity against Cryptosporidium parvum GP-60 subtype 2a A15G2RI infected in human HCT8 cells assessed as inhibition of parasite development at 0.144 uM measured 27 hrs post infection by qPCR analysis. To be noted: HCT-8, 27 h. It counts as functional. A general note: Quantitative PCR measures a nucleic acid by following its amplification.

A further experiment deals with Eimeria tenella. Briefly: Coccidiostat activity against Eimeria tenella infected in po dosed chicken. It is filed as functional.
Experiment [13] has as its system Leishmania donovani. Briefly: Antileishmanial activity against Leishmania donovani MHOM/SD/00/1S-2D promastigotes by luminescence assay. It counts as functional, organism-based.
The test system of a further experiment is Schistosoma mansoni. The experiment can be described thus: Antiparasitic activity against Schistosoma mansoni Puerto Rico PR-1 after 48 hrs by fluorescence based lactate release assay. It is filed as functional, organism-based. As to conditions: Puerto Rico PR-1, 48 h.

Structures are written as SMILES. Values after ≈ are worked out from the molar mass of the structure shown.

Usually MIC stands for the smallest concentration in the dilution series that meets the test's criterion for growth inhibition. Usually GI50 stands for the concentration at which growth is held to half of that of the control. In general, IC50 refers to the concentration that inhibits the measured activity by half. Broadly, the EC50 is the concentration that produces a half-maximal response. As usually defined, the inhibition is the change of the read-out against control, counted positive when it falls.

In the experiment on Trypanosoma brucei [1], `CCCCNC(=O)[C@H](CC)[C@H]1CC[C@H](C)[C@H]([C@@H](C)[C@H](O)[C@H](C)C(=O)[C@H](CC)[C@H]2O[C@]3(C=C[C@@H](O)[C@]4(CC[C@@](C)([C@H]5CC[C@](O)(CC)[C@H](C)O5)O4)O3)[C@H](C)C[C@@H]2C)O1` showed a minimal inhibitory concentration (MIC) of 0.1 µM (≈ 0.0806 µg/mL). Further, growth in the experiment on Trypanosoma brucei [2] was halved (GI50) at 40 nM.
The matching figures for `CC[C@@H](C(=O)[C@@H](C)[C@@H](O)[C@H](C)[C@@H]1O[C@@H]([C@@H](CC)C(=O)OCC(F)(F)F)CC[C@@H]1C)[C@H]1O[C@]2(C=C[C@@H](O)[C@]3(CC[C@@](C)([C@H]4CC[C@](O)(CC)[C@H](C)O4)O3)O2)[C@H](C)C[C@@H]1C`: 0.1 to 1 µM (≈ 0.0833 to 0.833 µg/mL) and 57 nM.
For the molecule `CC[C@@H](C(=O)[C@@H](C)[C@@H](O)[C@H](C)CCc1c(Br)cc(C)c(O)c1C(=O)[O-])[C@H]1O[C@](CC)([C@H]2CC[C@](O)(CC)[C@H](C)O2)C[C@@H]1C.[Na+]`, it took 0.069 µg/mL to reach half-maximal inhibition with Plasmodium falciparum [3] (IC50). In the experiment with Plasmodium chabaudi, the ED50 turned out to be 1.4 mg/kg.
As to `CC[C@@]1([C@@H]2O[C@@H]([C@H]3O[C@@](O)(COC(=O)Nc4ccc(Oc5ccccc5)cc4)[C@H](C)C[C@@H]3C)C[C@@H]2C)CC[C@H]([C@]2(C)CC[C@]3(C[C@H](O)[C@@H](C)[C@@H]([C@@H](C)[C@@H](OC)[C@@H](C)C(=O)[O-])O3)O2)O1.[Na+]`, the ED50 in the experiment with Plasmodium berghei was determined as 8 mg/kg.
Same read-out and setting: to `CC[C@@]1([C@@H]2O[C@@H]([C@H]3O[C@@](O)(COS(=O)(=O)c4ccc(C)cc4)[C@H](C)C[C@@H]3C)C[C@@H]2C)CC[C@H]([C@]2(C)CC[C@]3(C[C@H](O)[C@@H](C)[C@@H]([C@@H](C)[C@@H](OC)[C@@H](C)C(=O)O)O3)O2)O1` belongs 1.25 mg/kg.
With `CO[C@@H]1[C@@H](OC)[C@H](C)[C@@](O)(CC(=O)O)O[C@H]1[C@H](C)[C@H]1O[C@@]2(CC[C@@](C)([C@H]3CC[C@@](C)([C@@H]4O[C@@H]([C@H]5O[C@](C)(O)[C@H](C)C[C@@H]5C)C[C@@H]4O[C@@H]4C[C@@H](OC)[C@@H](OC)[C@H](C)O4)O3)O2)C[C@H](O)[C@H]1C`, in the experiment on Plasmodium falciparum [4], the midpoint of the response, the EC50, lay at 0.44 nM. The Activity in the experiment on Cryptosporidium parvum [5] stood at 96%.
On to `CC[C@@]1([C@@H]2O[C@@H]([C@H]3O[C@@](O)(CO)[C@H](C)C[C@@H]3C)C[C@@H]2C)CC[C@H]([C@]2(C)CC[C@]3(C[C@H](O)[C@@H](C)[C@@H]([C@@H](C)[C@@H](OC)[C@@H](C)C(=O)O)O3)O2)O1`, for which the EC50 in the experiment with Leishmania donovani [6] came out at 850 nM; in the experiment on Leishmania donovani [7] it was 230 nM; in the experiment on Leishmania major [8] it was 90 nM; in the experiment with Leishmania major [9], 380 nM. Moreover, in experiment [10], the ED50 amounted to 1.1 mg/kg. In addition, the ED90 in experiment [10] came to 3.5 mg/kg. The Activity in [11] turned out to be 100%; in the experiment on Toxoplasma gondii, 16.7%. In addition, the inhibition at 0.144 µM in the experiment on Cryptosporidium parvum [12] came to 98%.
In the experiment on Eimeria tenella, `CC[C@@]1([C@@H]2O[C@@H]([C@H]3O[C@@](O)(COC(=O)Nc4ccc(F)cc4)[C@H](C)C[C@@H]3C)C[C@@H]2C)CC[C@H]([C@]2(C)CC[C@]3(C[C@H](O)[C@@H](C)[C@@H]([C@@H](C)[C@@H](OC)[C@@H](C)C(=O)[O-])O3)O2)O1.[Na+]` gave an ED50 of 70 ppm.
Still for that read-out and setting: to `CC[C@@]1([C@@H]2O[C@@H]([C@H]3O[C@@](O)(COC(=O)NCCc4ccccc4)[C@H](C)C[C@@H]3C)C[C@@H]2C)CC[C@H]([C@]2(C)CC[C@]3(C[C@H](O)[C@@H](C)[C@@H]([C@@H](C)[C@@H](OC)[C@@H](C)C(=O)[O-])O3)O2)O1.[Na+]` belongs 50 ppm.
`CC[C@@]1([C@@H]2O[C@@H]([C@H]3O[C@@](O)(COC(=O)Nc4ccc(I)cc4)[C@H](C)C[C@@H]3C)C[C@@H]2C)CC[C@H]([C@]2(C)CC[C@]3(C[C@H](O)[C@@H](C)[C@@H]([C@@H](C)[C@@H](OC)[C@@H](C)C(=O)[O-])O3)O2)O1.[Na+]` gave an ED50 in the experiment with Plasmodium berghei of 5 mg/kg.
Same read-out and setting: to `CC[C@@]1([C@@H]2O[C@@H]([C@H]3O[C@@](O)(COC(=O)Nc4ccc(Br)cc4)[C@H](C)C[C@@H]3C)C[C@@H]2C)CC[C@H]([C@]2(C)CC[C@]3(C[C@H](O)[C@@H](C)[C@@H]([C@@H](C)[C@@H](OC)[C@@H](C)C(=O)[O-])O3)O2)O1.[Na+]` belongs 16 mg/kg.
On the same count and under the same terms, the value for `CC[C@@]1([C@@H]2O[C@@H]([C@H]3O[C@@]4(COC(=O)O4)[C@H](C)C[C@@H]3C)C[C@@H]2C)CC[C@H]([C@]2(C)CC[C@]3(C[C@H](O)[C@@H](C)[C@@H]([C@@H](C)[C@@H](OC)[C@@H](C)C(=O)O)O3)O2)O1` was 0.75 mg/kg; that for `CC[C@@]1([C@@H]2O[C@@H]([C@H]3O[C@@](O)(COC(=O)Nc4ccccc4)[C@H](C)C[C@@H]3C)C[C@@H]2C)CC[C@H]([C@]2(C)CC[C@]3(C[C@H](O)[C@@H](C)[C@@H]([C@@H](C)[C@@H](OC)[C@@H](C)C(=O)[O-])O3)O2)O1.[Na+]` was 4 mg/kg.
In the case of `CC[C@@]1([C@@H]2O[C@@H]([C@H]3O[C@@](O)(COC(=O)Nc4ccc(C)cc4)[C@H](C)C[C@@H]3C)C[C@@H]2C)CC[C@H]([C@]2(C)CC[C@]3(C[C@H](O)[C@@H](C)[C@@H]([C@@H](C)[C@@H](OC)[C@@H](C)C(=O)[O-])O3)O2)O1.[Na+]`, the ED50 with Eimeria tenella is 70 ppm.
Take `CC[C@@]1([C@@H]2O[C@@H]([C@H]3O[C@@](O)(COC(=O)Nc4ccc(Cl)cc4)[C@H](C)C[C@@H]3C)C[C@@H]2C)CC[C@H]([C@]2(C)CC[C@]3(C[C@H](O)[C@@H](C)[C@@H]([C@@H](C)[C@@H](OC)[C@@H](C)C(=O)[O-])O3)O2)O1.[Na+]`: in the experiment on Plasmodium berghei, the ED50 was determined as 2 mg/kg.
Same read-out and setting: the value for `CC[C@@]1([C@@H]2O[C@@H]([C@H]3O[C@@](O)(COC(=O)Nc4ccc([N+](=O)[O-])cc4)[C@H](C)C[C@@H]3C)C[C@@H]2C)CC[C@H]([C@]2(C)CC[C@]3(C[C@H](O)[C@@H](C)[C@@H]([C@@H](C)[C@@H](OC)[C@@H](C)C(=O)[O-])O3)O2)O1.[Na+]` was 5 mg/kg.
Regarding `CC[C@@H](C(=O)O)[C@@H]1O[C@@H]([C@@H](C)[C@H](O)[C@H](C)C(=O)[C@H](CC)[C@H]2O[C@]3(C=C[C@@H](O)[C@]4(CC[C@@](C)([C@H]5CC[C@](O)(CC)[C@H](C)O5)O4)O3)[C@H](C)C[C@@H]2C)[C@@H](C)C[C@@H]1C` [NARASIN], the response in the experiment with Leishmania donovani [13] was half-maximal at 2000 nM (EC50).
As to `CO[C@@H]1C[C@@H](C[C@H]2CC[C@H](C)[C@H]([C@@H](C)C(=O)O)O2)O[C@]2(O[C@](C)([C@H]3CC[C@@](C)([C@@H]4O[C@@H]([C@H]5O[C@@](O)(CO)[C@H](C)C[C@@H]5C)C[C@@H]4C)O3)C[C@H]2C)[C@@H]1C` [NIGERICIN], in [10], the ED50 was determined as 1.8 mg/kg and the ED90 was 4.6 mg/kg.
As to `CC[C@@H](C(=O)[C@@H](C)[C@@H](O)[C@H](C)[C@@H]1O[C@@H]([C@@H](CC)C(=O)O)CC[C@@H]1C)[C@H]1O[C@]2(C=C[C@@H](O)[C@]3(CC[C@@](C)([C@H]4CC[C@](O)(CC)[C@H](C)O4)O3)O2)[C@H](C)C[C@@H]1C` [SALINOMYCIN], the EC50 in the experiment on Leishmania donovani [13] came to 4000 nM. The midpoint of inhibition with Schistosoma mansoni, the IC50, lay at 32600 nM.
